Experimental data published in PMC5651349 (Alzheimer's & Dementia : Translational Research & Clinical …, 2016).

What was measured:
[1] = Adverse events, multiple ascending dose; details: MAD
[2] = Plasma pharmacokinetics following single dose; format: in vivo; details: both, human, oral
[3] = CSF pharmacokinetics following multiple dosing; details: both, human, in vivo
[4] = CSF pharmacokinetics following single dose
[5] = Adverse events, single ascending dose
[6] = Plasma and urine pharmacokinetics following multiple dosing; details: for CL renal: Mean renal clearance

- Tmax [2]: 0.75 to 2 h
- half-life [2]: 9 to 16.1 h
- Tmax [3]: ~4 h
- half-life [3]: 11.7 to 14.4 h
- Single-dose CSF concentrations ([4]; CSF, 1-mg and 3-mg dose level, elderly): generally below the LOQ
- Maximal mean concentrations in CSF ([4]; day 1, single dose, range across 10–150 mg): 2.94 to 22.7 ng/mL
- Tmax ([6]; both, human, in vivo): 2 to 4 h
- half-life ([6]; both, human, in vivo): 14.4 to 18.5 h
- CL renal ([6]; human, in vivo, day 1 (single dose)): 1.85 mL/min
- CL renal ([6]; human, in vivo, day 14): 1.92 mL/min
- Steady state concentrations reached ([6]; plasma, multiple dosing, all cohorts): ≤ 5 days
Structure (SMILES): C[C@@]1(c2cc(NC(=O)c3ccc(C#N)cn3)ccc2F)C=CSC(N)=N1 [JNJ-54861911]
- Back pain, participants with AE ([1]; all JNJ-54861911 participants (11/52)): 21.2%
- Headache, participants with AE ([1]; all JNJ-54861911 participants (13/52)): 25.0%
- Serious AEs (SAEs) ([5]; SAD and MAD studies): no serious AEs
- Back pain, participants with AE ([5]; SAD, all JNJ-54861911 participants (10/42)): 23.8%
- Headache, participants with AE ([5]; SAD, all JNJ-54861911 participants (16/42)): 38.1%
- Tolerability ([5]; single and multiple oral doses between 1 and 150 mg (SAD and MAD studies), healthy participants): well-tolerated
